The record followed here is BindingDB's records for PubMed 1836757 (University of Heidelberg, 1991).

Some results are limits rather than exact numbers.

The target of this test is 5-hydroxytryptamine receptor 1A/1B/1D/2C (Homo sapiens, UniProt P08908+P28221+P28222+P28335).
Chain of 5-hydroxytryptamine receptor 1A/1B/1D/2C (P08908 whole entry): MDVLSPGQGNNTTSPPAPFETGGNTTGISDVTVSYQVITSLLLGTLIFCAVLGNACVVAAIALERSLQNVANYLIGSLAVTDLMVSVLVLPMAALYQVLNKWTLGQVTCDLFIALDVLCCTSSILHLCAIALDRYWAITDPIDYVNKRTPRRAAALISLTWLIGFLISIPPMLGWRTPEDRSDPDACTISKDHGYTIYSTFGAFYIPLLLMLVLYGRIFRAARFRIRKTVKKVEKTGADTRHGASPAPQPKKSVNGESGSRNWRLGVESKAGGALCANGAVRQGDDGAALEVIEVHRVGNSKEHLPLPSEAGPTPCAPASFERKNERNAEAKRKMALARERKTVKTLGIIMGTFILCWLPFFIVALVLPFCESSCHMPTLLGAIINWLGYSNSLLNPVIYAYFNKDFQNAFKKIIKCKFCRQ
Chain of 5-hydroxytryptamine receptor 1A/1B/1D/2C (P28222 whole entry): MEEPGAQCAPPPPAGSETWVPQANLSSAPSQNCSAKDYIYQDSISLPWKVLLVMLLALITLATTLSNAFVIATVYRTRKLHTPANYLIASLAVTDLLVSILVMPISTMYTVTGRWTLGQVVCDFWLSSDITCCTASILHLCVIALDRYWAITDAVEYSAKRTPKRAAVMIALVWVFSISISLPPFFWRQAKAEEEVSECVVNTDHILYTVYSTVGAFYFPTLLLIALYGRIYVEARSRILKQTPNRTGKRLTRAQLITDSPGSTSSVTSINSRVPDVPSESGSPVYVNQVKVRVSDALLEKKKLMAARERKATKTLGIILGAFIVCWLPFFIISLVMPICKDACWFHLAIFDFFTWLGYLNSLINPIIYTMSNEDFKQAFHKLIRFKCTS
Chain of 5-hydroxytryptamine receptor 1A/1B/1D/2C (P28221 whole entry): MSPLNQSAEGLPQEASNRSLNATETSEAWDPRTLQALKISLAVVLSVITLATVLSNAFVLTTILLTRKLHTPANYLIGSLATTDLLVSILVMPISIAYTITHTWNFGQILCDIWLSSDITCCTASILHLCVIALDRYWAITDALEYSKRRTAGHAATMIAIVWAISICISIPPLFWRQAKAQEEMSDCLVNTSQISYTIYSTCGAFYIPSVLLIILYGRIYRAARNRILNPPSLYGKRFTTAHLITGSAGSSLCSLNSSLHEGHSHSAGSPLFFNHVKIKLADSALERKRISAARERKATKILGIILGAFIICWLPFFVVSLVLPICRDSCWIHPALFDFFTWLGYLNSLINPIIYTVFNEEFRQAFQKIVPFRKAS
Chain of 5-hydroxytryptamine receptor 1A/1B/1D/2C (P28335 whole entry): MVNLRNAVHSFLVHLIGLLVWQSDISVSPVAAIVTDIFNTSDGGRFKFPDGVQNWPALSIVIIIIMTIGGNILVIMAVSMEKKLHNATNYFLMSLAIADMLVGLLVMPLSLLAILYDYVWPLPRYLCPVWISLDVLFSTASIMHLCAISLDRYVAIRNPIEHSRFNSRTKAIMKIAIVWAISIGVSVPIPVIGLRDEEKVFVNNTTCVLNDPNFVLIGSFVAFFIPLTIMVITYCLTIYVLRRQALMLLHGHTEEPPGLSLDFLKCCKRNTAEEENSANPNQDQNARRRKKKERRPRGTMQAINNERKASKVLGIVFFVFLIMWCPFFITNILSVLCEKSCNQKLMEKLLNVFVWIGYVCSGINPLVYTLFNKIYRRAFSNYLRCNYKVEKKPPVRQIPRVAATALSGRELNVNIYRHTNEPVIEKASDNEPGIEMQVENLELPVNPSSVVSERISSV

What is called Ki is a measure of affinity in units of concentration, obtained from inhibition or displacement. A lower Ki goes with tighter binding. For `CN1C2CCC1CC(OC(=O)c1c[nH]c3ccccc13)C2` (configuration not stated), the Ki was over 10000 nM.

For `CC[C@@H](CO)NC(=O)[C@@H]1C=C2c3cccc4c3c(cn4C)C[C@H]2N(C)C1`, the Ki turned out to be 436 nM. This counts as sub-micromolar.
